The source of these data is patent US20120129811A1, “TRICYCLIC INHIBITORS OF PRO-MATRIX METALLOPROTEINASE ACTIVATION” (priority 2010, published 2012).

In experiment [1] the target is T1, proMMP9(20-445;ΔFnII) (SEQ ID NO:6) (Homo sapiens, UniProt P14780, DEL216-390).
T1 construct: start methionine (N); made in house; host or cells: E. coli BL21(DE3) RIL
T1 sequence (P14780 with tags, fused parts or gaps DEL216-390): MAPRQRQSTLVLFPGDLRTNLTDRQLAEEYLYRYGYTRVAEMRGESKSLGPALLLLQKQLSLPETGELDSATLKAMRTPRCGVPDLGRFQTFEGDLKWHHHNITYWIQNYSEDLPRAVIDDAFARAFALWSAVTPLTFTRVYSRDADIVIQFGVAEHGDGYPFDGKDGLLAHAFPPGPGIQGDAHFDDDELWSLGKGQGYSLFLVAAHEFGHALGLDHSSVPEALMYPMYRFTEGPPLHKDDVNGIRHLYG
Description: ThermoFluor binding assay with proMMP9(20-445;ΔFnII). The essentials: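 Protein thermal stability was measured with 2.8 μM proMMP9(20-445;ΔFnII) and 50 μM 1,8-ANS in 50 mM HEPES pH 7.0, 100 mM NaCl, 0.001% Tween-20, 2.5 mM MgCl2, 300 μM CaCl2, across serial compound dilutions. Samples were heated 40–90° C at 1° C/min with fluorescence read at 500 nm. Tm was fitted, and binding was derived from thermodynamic parameters obtained by DSC and ThermoFluor.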

Experiment [2] addresses T2, full-length proMMP9(1-707) activation by catalytic MMP3 (Homo sapiens, UniProt P14780, R574P).
T2 construct: made in house; host or cells: proMMP9: HEK293 (secreted); MMP3: E. coli
In words: proMMP9/MMP3 P126 Activation Assay. Format: biochemical. On the procedure:
proMMP9/MMP3 P126 Activation Assay
The reaction volume was 50 μL. […] Reactivity of residual MMP3 towards P-126 substrate was minimal under these conditions.

Experiment [3] has as its target T3, proMMP13(1-268) (SEQ ID NO:7) (Homo sapiens, UniProt P45452).
T3 construct: 6xHis (C); made in house; host or cells: HEK293 (transient, secreted)
In words: ThermoFluor binding assay with proMMP13(1-268). On the procedure: The ThermoFluor® (TF) assay is a 384-well plate-based binding assay that measures thermal stability of proteins (Biomol Screen 2001, 6, 429-40; Biochemistry 2005, 44, 5258-66). The experiments were carried out using instruments available from Johnson & Johnson Pharmaceutical Research & Development, LLC. TF dye used in all experiments was […] (1,8-ANS) (Invitrogen: A-47).
Compounds were arranged in a pre-dispensed plate (Greiner Bio-one: 781280), wherein compounds were serially diluted in 100% DMSO across 11 columns within a series. Columns 12 and 24 were used as DMSO reference and contained no compound. For multiple compound concentration-response experiments, the compound aliquots (50 nL) were robotically predispensed directly into black 384-well polypropylene PCR microplates (Abgene: TF-0384/k) using a Cartesian Hummingbird liquid handler (DigiLab, Holliston, Mass.). Following compound dispense, protein and dye solutions were added to achieve the final assay volume of 3 μL. The assay solutions were overlayed with 1 μL of silicone oil (Fluka, type DC 200: 85411) to prevent evaporation.
Assay plates were robotically loaded onto a thermostatically controlled PCR-type thermal block and then heated from 40 to 90° C. at a ramp-rate of 1° C./min for all experiments. Fluorescence was measured by continuous illumination with UV light (Hamamatsu LC6) supplied via fiber optics and filtered through a band-pass filter (380-400 nm; >60D cutoff). Fluorescence emission of the entire 384-well plate was detected by measuring light intensity using a CCD camera (Sensys, Roper Scientific) filtered to detect 500±25 nm, resulting in simultaneous and independent readings of all 384 wells. A single image with 20-sec exposure time was collected at each temperature, and the sum of the pixel intensity in a given area of the assay plate was recorded vs temperature and fit to standard equations to yield the Tm (J Biomol Screen 2001, 6, 429-40).
Thermodynamic parameters necessary for fitting compound binding for each proMMP were estimated by differential scanning calorimetry (DSC) and from ThermoFluor® data. The heat capacity of unfolding for each protein was estimated from the molecular weight and from ThermoFluor® dosing data.
ThermoFluor® with proMMP13(1-268) (SEQ ID NO: 7)
The proMMP13(1-268) (SEQ ID NO:7) protein sample preparations included a desalting buffer exchange step via a PD-10 gravity column (GE Healthcare). The desalting buffer exchange was performed prior to diluting the protein to the final assay concentration of 3.5 μM. The concentration of proMMP13(1-268) (SEQ ID NO:7) was estimated spectrophotometrically based on a calculated extinction coefficient of ε280=37000 M^−1 cm^−1, a calculated molecular weight of 30.8 kDa, and calculated pI of 5.33. ThermoFluor® reference conditions were defined as follows: 100 μg/mL proMMP13(1-268) (SEQ ID NO:7), 25 μM 1,8-ANS, pH 7.0 Buffer (50 mM HEPES pH 7.0, 100 mM NaCl, 0.001% Tween-20, 2.5 mM MgCl2, 300 μM CaCl2). The thermodynamic parameters for proMMP13(1-268) (SEQ ID NO:7) are as follows: Tm (° C.)=67 (+/−0.1), ΔUH(Tm)) (cal mol^−1)=107000(+/−5000), ΔUSTm (cal mol^−1 K^−1)=318, ΔUCp (cal mol^−1 K^−1)=2600.
(In general: In DSF a fluorescence change marks the thermal transition of the protein.)

Experiment [4] deals with T4, proMMP9(67-444;ΔFnII) (SEQ ID NO:5) (Homo sapiens, UniProt P14780, DEL216-390).
T4 construct: start methionine (N); made in house; host or cells: E. coli BL21(DE3) RIL
T4 sequence (P14780 with tags, fused parts or gaps DEL216-390): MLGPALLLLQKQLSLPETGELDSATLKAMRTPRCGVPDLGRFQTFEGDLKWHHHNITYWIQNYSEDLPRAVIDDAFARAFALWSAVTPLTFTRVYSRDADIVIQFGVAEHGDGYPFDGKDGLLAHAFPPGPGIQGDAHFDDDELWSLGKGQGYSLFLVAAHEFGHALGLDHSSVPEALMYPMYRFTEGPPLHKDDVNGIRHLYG
In words: ThermoFluor binding assay with proMMP9(67-444;ΔFnII). The essentials: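 Thermal shift of 3.5 μM proMMP9(67-444;ΔFnII), desalted beforehand, with 50 μM 1,8-ANS in 50 mM HEPES pH 7.0, 100 mM NaCl, 2.5 mM MgCl2, 300 μM CaCl2, 0.001% Tween-20. Heated 40–90 °C at 1 °C/min, fluorescence read at 500 nm; binding fitted from Tm shifts using DSC- and ThermoFluor-derived unfolding parameters.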

Where a name gives a salt, the structure may show the parent alone.

T2 sequence (P14780 20-707 R574P): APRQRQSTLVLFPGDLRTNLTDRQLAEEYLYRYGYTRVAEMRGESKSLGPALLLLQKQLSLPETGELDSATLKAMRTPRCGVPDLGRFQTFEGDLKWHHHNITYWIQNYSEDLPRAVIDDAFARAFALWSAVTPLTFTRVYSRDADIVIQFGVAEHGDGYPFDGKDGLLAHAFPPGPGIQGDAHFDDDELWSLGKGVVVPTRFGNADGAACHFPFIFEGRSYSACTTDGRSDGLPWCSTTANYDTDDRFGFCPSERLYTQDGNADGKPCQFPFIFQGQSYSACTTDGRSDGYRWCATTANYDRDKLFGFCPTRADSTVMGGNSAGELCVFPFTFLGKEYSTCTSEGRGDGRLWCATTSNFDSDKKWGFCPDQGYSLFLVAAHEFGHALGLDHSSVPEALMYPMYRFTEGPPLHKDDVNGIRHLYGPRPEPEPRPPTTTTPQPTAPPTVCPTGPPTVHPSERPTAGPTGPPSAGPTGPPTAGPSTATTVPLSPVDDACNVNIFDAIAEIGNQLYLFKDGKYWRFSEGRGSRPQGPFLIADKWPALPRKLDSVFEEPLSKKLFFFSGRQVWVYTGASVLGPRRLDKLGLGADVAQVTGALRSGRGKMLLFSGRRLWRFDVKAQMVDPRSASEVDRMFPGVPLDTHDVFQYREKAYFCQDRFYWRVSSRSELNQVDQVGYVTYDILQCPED

In general, Kd refers to a measure of binding affinity in units of concentration. Low readings indicate tighter binding, high ones weaker binding. Broadly, the IC50 is the concentration needed to halve the response being measured. A higher IC50 goes with lower potency. Regarding `CC(C)Oc1ccc(C(N)=O)cc1Nc1nc2c(ccc3[nH]c(=O)[nH]c32)s1` [Example 23, 4-Isopropoxy-3-(7-oxo-7,8-dihydro-6H-imidazo[4′,5′:3,4]benzo[2,1-d]thiazol-2-ylamino)-benzamide.TFA], the dissociation constant Kd is 590 nM in experiment [1], 3000 nM in experiment [3] and 970 nM in experiment [4]. In experiment [2], this compound yielded an IC50 of 840 nM.
For `CC(=O)Nc1nc2c(ccc3sc(Nc4cc(C(N)=O)ccc4OC(C)C)nc32)[nH]1` [Example 18, 3-(7-Acetylamino-6H-imidazo[4′,5′:3,4]-benzo[2,1-d]thiazol-2-ylamino)-4-isopropoxy-benzamide.HCl], the Kd in experiment [1] amounted to 880 nM; in experiment [3], 3400 nM; in experiment [4], 550 nM. The compound also yielded a half-inhibitory concentration (IC50) in experiment [2] of 630 nM.
For `CC(C)Oc1ccccc1Nc1nc2c(ccc3nc(N)sc32)s1` [Example 9, N^7-(2-Isopropoxy-phenyl)-benzo[1,2-d;3,4-d′]-bisthiazole-2,7-diamine.TFA], the equilibrium dissociation constant (Kd) in experiment [1] is 27000 nM; in experiment [3], 18000 nM; in experiment [4] it was 4400 nM. The compound further returned a half-inhibitory concentration (IC50) in experiment [2] of 10000 nM.
Consider `Cc1nc2c(s1)-c1nc(Nc3cc(C(N)=O)ccc3OC(C)C)sc1CC2` [Example 12, 4-Isopropoxy-3-(2-methyl-4,5-dihydro-benzo[1,2-d;3,4-d′]-bisthiazol-7-ylamino)-benzamide.TFA], for which the Kd in experiment [1] is 1700 nM; in experiment [3], 6500 nM; in experiment [4] it was 3800 nM. Besides, the midpoint of inhibition in experiment [2], the IC50, lay at 1100 nM.
In the same order, the values of `CC(C)Oc1ccc(C(N)=O)cc1Nc1nc2c(ccc3ncccc32)s1` [Example 91, 4-Isopropoxy-3-(thiazolo[4,5-f]quinolin-2-ylamino)-benzamide.TFA] are 950 nM, 9000 nM, 2900 nM and 1300 nM.
In the case of `CC(C)Oc1ccc(C(N)=O)cc1Nc1nc2c(s1)CCc1ccncc1-2` [Example 116, 3-(4,5-Dihydro-thiazolo[5,4-h]isoquinolin-2-ylamino)-4-isopropoxy-benzamide.TFA], the Kd in experiment [1] came to 1800 nM; in experiment [3] it was 8700 nM; in experiment [4], 7300 nM. Further, in experiment [2], the midpoint of inhibition, the IC50, lay at 980 nM.
As for `CC(C)Oc1ccc(S(N)(=O)=O)cc1Nc1nc2c(ccc3c2ncn3C)s1` [Example 28, 4-Isopropoxy-3-(6-methyl-6H-imidazo[4′,5′:3,4]benzo[2,1-d]thiazol-2-ylamino)-benzenesulfonamide.HCl], the Kd in experiment [1] was 880 nM; in experiment [3], 3500 nM; in experiment [4] it was 2200 nM. In experiment [2], this compound had an IC50 of 180 nM.
Regarding `CCS(=O)(=O)c1ccc(OC)c(Nc2nc3c(ccc4c3ncn4C)s2)c1` [Example 60, (5-Ethanesulfonyl-2-methoxy-phenyl)-(6-methyl-6H-imidazo[4′,5′:3,4]-benzo[2,1-d]thiazol-2-yl)-amine.HCl], the Kd in experiment [1] was 2800 nM; in experiment [3], 1500 nM; in experiment [4] it was 970 nM. For the same compound, 340 nM corresponded to half-maximal inhibition in experiment [2] (IC50).
As to `COc1ccc(S(=O)(=O)N(C)C)cc1Nc1nc2c(ccc3c2ncn3C)s1` [Example 55, 4-Methoxy-N,N-dimethyl-3-(6-methyl-6H-imidazo[4′,5′:3,4]benzo[2,1-d]thiazol-2-ylamino)-benzenesulfonamide.HCl], the equilibrium dissociation constant (Kd) turned out to be 6700 nM in experiment [1], 2100 nM in experiment [3] and 2200 nM in experiment [4]. In addition, the IC50 in experiment [2] was determined as 530 nM.
As to `CC(C)Oc1ccc(C(N)=O)cc1Nc1nc2c(ccc3[nH]c(N)nc32)s1` [Example 11, 3-(7-Amino-6H-imidazo[4′,5′:3,4]benzo[2,1-d]thiazol-2-ylamino)-4-isopropoxy-benzamide.HCl], the Kd in experiment [1] turned out to be 1300 nM; in experiment [3] it was 470 nM; in experiment [4] it was 720 nM. Moreover, in experiment [2], the half-maximal inhibitory concentration (IC50) was 250 nM.
As to `COc1cc(C)c(C(N)=O)cc1Nc1nc2c(ccc3c2ncn3C)s1` [Example 56, 4-Methoxy-2-methyl-5-(6-methyl-6H-imidazo[4′,5′:3,4]benzo[2,1-d]thiazol-2-ylamino)-benzamide.HCl], the equilibrium dissociation constant (Kd) in experiment [1] stood at 1000 nM; in experiment [3], 9800 nM; in experiment [4], 3300 nM. Besides, in experiment [2], the 50% inhibitory concentration (IC50) was found to be 1100 nM.
Regarding `COC(=O)c1ccc(OC)c(Nc2nc3c(ccc4c3ncn4C)s2)c1` [Example 61, 4-Methoxy-3-(6-methyl-6H-imidazo[4′,5′:3,4]benzo[2,1-d]thiazol-2-ylamino)-benzoic acid methyl ester.HCl], the Kd in experiment [1] turned out to be 3200 nM; in experiment [3] it was 2100 nM; in experiment [4], 860 nM. In experiment [2], this compound registered a half-inhibitory concentration (IC50) of 650 nM.
In the case of `CC(C)Oc1ccc(C(N)=O)cc1Nc1nc2c(s1)CCc1cnccc1-2` [Example 115, 3-(4,5-Dihydro-thiazolo[4,5-f]isoquinolin-2-ylamino)-4-isopropoxy-benzamide.TFA], the Kd in experiment [1] came to 3000 nM; in experiment [3], 14000 nM; in experiment [4], 25000 nM. In experiment [2], this compound registered a 50% inhibitory concentration (IC50) of 1600 nM.
For `CCc1ccccc1Nc1nc2c(ccc3c2ncn3C)s1` [Example 62, (2-Ethyl-phenyl)-(6-methyl-6H-imidazo[4′,5′:3,4]benzo[2,1-d]thiazol-2-yl)-amine.HCl], in that order: 3900 nM, 51000 nM, 1600 nM and 1100 nM.
As for `COc1c(F)cc(F)cc1Nc1nc2c(ccc3c2ncn3C)s1` [Example 63, (3,5-Difluoro-2-methoxy-phenyl)-(6-methyl-6H-imidazo[4′,5′:3,4]benzo[2,1-d]thiazol-2-yl)-amine.HCl], the Kd turned out to be 1200 nM in experiment [1], 2300 nM in experiment [3] and 450 nM in experiment [4]. The same compound yielded an IC50 in experiment [2] of 690 nM.
